Reference: PubChem BioAssay AID1963980 (Molecular Pharmacology Branch, DTP, NCI, 2024)
pIC50: −log10 of the molar value.

System: 475296-252-R-J1-PDC spheroid viability
Experiment: Anticancer human tumor 475296-252-R-J1-PDC patient-derived rectal carcinoma cell line growth inhibition [PI3K]
Details: spheroids with HUVEC and MSC; for pIC50: curve of first compound; for viability, T/C: stronger effect = lower value; active means viability on the fitted dose curve at most 10% of control; inactive means the rest
Source text: Combinatorial screen of targeted agents with the PI3K inhibitors inavolisib, alpelisib, duvelisib, and copanlisib in multi-cell type tumor spheroids
A high-throughput screen of multi-cell type tumor spheroids was designed to identify active combinations of targeted small molecules and PI3K pathway inhibitors. Complex spheroids include a stromal component modeled by human endothelial cells (HUVEC) and fibroblasts modeled by human mesenchymal stem cells (MSCs). The concentration ranges selected for each drug and investigational agent were based upon clinically achievable concentrations if the clinical Cmax of the agent was known.
Compounds. The drugs and investigational agents: inavolisib (NSC800729), alpelisib (NSC765974), duvelisib (NSC772469), copanlisib (NSC816437), ipatasertib (NSC767898), afuresertib (NSC778305), talazoparib (NSC767125), sapanisertib (NSC764658), selumetinib (NSC741078), tovorafenib (DAY101, NSC766906), vemurafenib (NSC761431), ravoxertinib (NSC781343), sotorasib (NSC818433), MRTX1133 (NSC 836407), abemaciclib (NSC 768073), palbociclib (NSC758247), venetoclax (NSC 766270), SY5609 (NSC837396), enzalutamide (NSC755605), and darolutamide (NSC825331), were obtained from the National Cancer Institute (NCI) Developmental Therapeutics Program Chemical Repository. The FDA-approved anticancer drug set is available from the NCI Developmental Therapeutics Program. […] The stock solutions were prepared in dimethyl sulfoxide (DMSO, Sigma-Aldrich, St. Louis, MO, cat. D2650) at 800-fold the tested concentration and stored at -70 degrees C prior to their use. All drugs and investigational agents were tested over a range starting from a high concentration at or near the clinical Cmax and decreasing in half-log increments. If the clinical Cmax for an agent had not been determined, the highest concentration tested was 10 microM.
Cell Culture. All cells were maintained in an incubator at 37 degrees C and 5% CO2 with 95% humidity. The PDC lines were cultured according to standard operating procedures established by the NCI PDMR (https://pdmr.cancer.gov/sops/default.htm). All PDCs were thawed and cultured in Matrigel-coated flasks prepared with a working solution of 1X Ham's F-12 nutrient mix, without supplementation (Invitrogen, Waltham, MA, cat. 11765054), 100 U/mL penicillin-streptomycin (Invitrogen, cat. 15140122), and 2.5% Matrigel (Corning Inc., Corning, NY, cat. 354248) for the first three passages. The 354836-022-R-J1-PDC, 475296-252-R-J1-PDC, and 997726-040-R-J2-PDC lines were cultured in 6A media, which includes advanced DMEM/F-12 (Thermo Fisher Scientific, cat. 12634028), 10 mM HEPES (Thermo Fisher Scientific, cat. 15630080), 1X GlutaMAX supplement (Thermo Fisher Scientific, cat. 35050061), 0.1 mg/mL primocin (InvivoGen, San Diego, CA, cat. ant-pm-2), 10% defined fetal bovine serum, heat inactivated (HyClone Laboratories Inc., Logan, UT, cat. SH30070.03HI), 50% L-WRN conditioned media (ATCC, cat. CRL-3276), 1.25 mM N-Acetyl-L-cysteine (Sigma-Aldrich, cat. A9165), 10 mM nicotinamide (Sigma-Aldrich, cat. N0636), 1X B-27 supplement (Thermo Fisher Scientific, cat. 17504044), 1X N-2 supplement (Thermo Fisher Scientific, cat. 17502048), and 10 microM Y-27632 dihydrochloride (Tocris Bioscience, Bristol, United Kingdom, cat. 1254). The 624824-186-R-J2-PDC line was cultured in 6C/Colon 1B media, which includes all 6A media components plus 50 ng/mL human EGF recombinant protein (Thermo Fisher Scientific, cat. PHG0311). […]

[1] = second compound 0.00316 µM, first compound 0.0316 µM
[2] = second compound 0.00316 µM, first compound 0.1 µM
[3] = second compound 0.01 µM, first compound 0.0316 µM
[4] = second compound 0.01 µM, first compound 0.1 µM
[5] = second compound 0.0316 µM, first compound 0.0316 µM
[6] = second compound 0.0316 µM, first compound 0.1 µM
[7] = second compound 0.1 µM, first compound 0.0316 µM
[8] = second compound 0.1 µM, first compound 0.1 µM
[9] = second compound 0.316 µM, first compound 0.0316 µM
[10] = second compound 0.316 µM, first compound 0.1 µM
[11] = second compound 1 µM, first compound 0.0316 µM
[12] = second compound 1 µM, first compound 0.1 µM
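Further: spheroids exposed to agents for seven days before readout.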

CC(C)n1nc(-c2ccc3oc(N)nc3c2)c2c(N)ncnc21 + CC(Nc1ccc2c(c1)OCCn1cc(N3C(=O)OCC3C(F)F)nc1-2)C(N)=O
< 7.00: pIC50 (second compound 0.00316 µM) | pIC50 (second compound 0.01 µM) | pIC50 (second compound 0.0316 µM) | pIC50 (second compound 0.1 µM) | pIC50 (second compound 0.316 µM) | pIC50 (second compound 1 µM)
inactive: viability, T/C (second compound 0.00316 µM, first compound 0.000316 µM) 91% | viability, T/C (second compound 0.00316 µM, first compound 0.001 µM) 83.2% | viability, T/C (second compound 0.00316 µM, first compound 0.00316 µM) 89.2% | viability, T/C (second compound 0.00316 µM, first compound 0.01 µM) 73.2% | viability, T/C [1] 74.9% | viability, T/C [2] 58.7% | viability, T/C (second compound 0.01 µM, first compound 0.000316 µM) 97.3% | viability, T/C (second compound 0.01 µM, first compound 0.001 µM) 81.5% | viability, T/C (second compound 0.01 µM, first compound 0.00316 µM) 95.1% | viability, T/C (second compound 0.01 µM, first compound 0.01 µM) 85.7% | viability, T/C [3] 82.3% | viability, T/C [4] 61.4% | viability, T/C (second compound 0.0316 µM, first compound 0.000316 µM) 85.5% | viability, T/C (second compound 0.0316 µM, first compound 0.001 µM) 113% | viability, T/C (second compound 0.0316 µM, first compound 0.00316 µM) 94.8% | viability, T/C (second compound 0.0316 µM, first compound 0.01 µM) 89.8% | viability, T/C [5] 77.7% | viability, T/C [6] 58% | viability, T/C (second compound 0.1 µM, first compound 0.000316 µM) 83.5% | viability, T/C (second compound 0.1 µM, first compound 0.001 µM) 88% | viability, T/C (second compound 0.1 µM, first compound 0.00316 µM) 92% | viability, T/C (second compound 0.1 µM, first compound 0.01 µM) 88.6% | viability, T/C [7] 77% | viability, T/C [8] 59.6% | viability, T/C (second compound 0.316 µM, first compound 0.000316 µM) 83.8% | viability, T/C (second compound 0.316 µM, first compound 0.001 µM) 89% | viability, T/C (second compound 0.316 µM, first compound 0.00316 µM) 88.8% | viability, T/C (second compound 0.316 µM, first compound 0.01 µM) 82.7% | viability, T/C [9] 74% | viability, T/C [10] 58.7% | viability, T/C (second compound 1 µM, first compound 0.000316 µM) 87.4% | viability, T/C (second compound 1 µM, first compound 0.001 µM) 83.3% | viability, T/C (second compound 1 µM, first compound 0.00316 µM) 83% | viability, T/C (second compound 1 µM, first compound 0.01 µM) 85.8% | viability, T/C [11] 71.1% | viability, T/C [12] 55.2%

CCCS(=O)(=O)Nc1ccc(F)c(C(=O)c2c[nH]c3ncc(-c4ccc(Cl)cc4)cc23)c1F + CC(Nc1ccc2c(c1)OCCn1cc(N3C(=O)OCC3C(F)F)nc1-2)C(N)=O
< 5.00: pIC50 (second compound 0.00316 µM) | pIC50 (second compound 0.01 µM) | pIC50 (second compound 0.0316 µM) | pIC50 (second compound 0.1 µM) | pIC50 (second compound 0.316 µM) | pIC50 (second compound 1 µM)
inactive: viability, T/C [1] 84.5% | viability, T/C [2] 84.3% | viability, T/C (second compound 0.00316 µM, first compound 0.316 µM) 81.7% | viability, T/C (second compound 0.00316 µM, first compound 1 µM) 85.2% | viability, T/C (second compound 0.00316 µM, first compound 3.16 µM) 92.6% | viability, T/C (second compound 0.00316 µM, first compound 10 µM) 101% | viability, T/C [3] 102% | viability, T/C [4] 89% | viability, T/C (second compound 0.01 µM, first compound 0.316 µM) 90.4% | viability, T/C (second compound 0.01 µM, first compound 1 µM) 83.2% | viability, T/C (second compound 0.01 µM, first compound 3.16 µM) 82.6% | viability, T/C (second compound 0.01 µM, first compound 10 µM) 91.7% | viability, T/C [5] 97.5% | viability, T/C [6] 94.8% | viability, T/C (second compound 0.0316 µM, first compound 0.316 µM) 96.8% | viability, T/C (second compound 0.0316 µM, first compound 1 µM) 89.8% | viability, T/C (second compound 0.0316 µM, first compound 3.16 µM) 75.9% | viability, T/C (second compound 0.0316 µM, first compound 10 µM) 88.3% | viability, T/C [7] 83.8% | viability, T/C [8] 96.6% | viability, T/C (second compound 0.1 µM, first compound 0.316 µM) 89.6% | viability, T/C (second compound 0.1 µM, first compound 1 µM) 84.5% | viability, T/C (second compound 0.1 µM, first compound 3.16 µM) 81.4% | viability, T/C (second compound 0.1 µM, first compound 10 µM) 81.9% | viability, T/C [9] 77.4% | viability, T/C [10] 94.5% | viability, T/C (second compound 0.316 µM, first compound 0.316 µM) 89.5% | viability, T/C (second compound 0.316 µM, first compound 1 µM) 79.1% | viability, T/C (second compound 0.316 µM, first compound 3.16 µM) 81.4% | viability, T/C (second compound 0.316 µM, first compound 10 µM) 70.4% | viability, T/C [11] 90.7% | viability, T/C [12] 92.6% | viability, T/C (second compound 1 µM, first compound 0.316 µM) 80.4% | viability, T/C (second compound 1 µM, first compound 1 µM) 90.3% | viability, T/C (second compound 1 µM, first compound 3.16 µM) 83.1% | viability, T/C (second compound 1 µM, first compound 10 µM) 72.7%
